Laboratory results as given in patent US8324390B2, “Tetrazole-substituted anthranilamides as pesticides” (Bayer CropScience AG, priority 2008, dated 2012).
Read-outs that look alike come from different tables or passages of the source.

Key:
[1] = log P determination by HPLC (EEC Directive 79/831 Annex V.A8); type: physicochemical
Experimental: The measurements were carried out using an Agilent 1100 LC system with a 50*4.6 Zorbax Eclipse C18 1.8 μm column (oven temperature 55° C., flow rate 2.0 ml/min).
The following mobile phases were used:
Mobile phase A: acetonitrile+1000 μl of formic acid/l
Mobile phase B: Millipore water+900 μl of formic acid/l

[2] = test system: caterpillars of the armyworm (Spodoptera frugiperda); test: Spodoptera frugiperda test (SPODFR spray treatment); type: in vivo; conditions: Spodoptera frugiperda, foliar, read-out: effect in % (caterpillars killed)
Excerpt: (§1) Solvent: 78.0 parts by weight of acetone

[3] = test system: green peach aphid (Myzus persicae); test: Myzus test (MYZUPE spray treatment); type: in vivo; conditions: Myzus persicae, foliar, read-out: effect in % (aphids killed)
Excerpt: Solvent: 78 parts by weight of acetone
as §1

[4] = test system: larvae of the mustard beetle (Phaedon cochleariae); test: Phaedon test (PHAECO spray treatment); conditions: Phaedon cochleariae, in Brassica rapa, foliar, read-out: effect in % (beetle larvae killed)
[5] = reversed-phase HPLC, Zorbax Eclipse C18 column, by HPLC according to EEC Directive 79/831 Annex V.A8, read-out: log P
[6] = application rate 100 g/ha, maize leaf discs
[7] = application rate 100 g/ha, Chinese cabbage leaf discs
[8] = reversed-phase HPLC, Zorbax Eclipse C18 column, determined by HPLC according to EEC Directive 79/831 Annex V.A8, read-out: log P

SMILES | chromatographic logP ([1]; log P) | pest or weed control at 100 g/ha ([2]; in Zea mays) [%] | pest or weed control at 100 g/ha ([3]; in Brassica rapa) [%] | pest or weed control at 100 g/ha [4] [%] | chromatographic logP [1, 5] | pest or weed control at 100 g/ha [2, 6] [%] | pest or weed control at 100 g/ha [3, 7] [%] | pest or weed control at 20 g/ha ([3]; in Brassica rapa) [%] | chromatographic logP [1, 8]
CNC(=O)c1cc(F)cc(C)c1NC(=O)c1cc(Cn2nnc(C(F)(F)F)n2)nn1-c1ncccc1Cl [Example 29] | 2.66 | ≥ 80 | ≥ 80 | ≥ 80 |  |  |  |  | 
O=C(NC1CC1)c1cc(Cl)cc(Cl)c1NC(=O)c1cc(Cn2nnc(C(F)F)n2)nn1-c1ncccc1Cl [Example 284] | 2.7 | ≥ 80 | ≥ 80 | ≥ 80 |  |  |  |  | 
CC(C)NC(=O)c1cc(Cl)cc(Cl)c1NC(=O)c1cc(Cn2nnnc2C(F)F)nn1-c1ncccc1Cl [Example 466] | 2.71 | ≥ 80 | ≥ 80 | ≥ 80 |  |  |  |  | 
Cc1cc(Cl)cc(C(N)=O)c1NC(=O)c1cc(Cn2nnc(C(F)(F)F)n2)nn1-c1ncccc1Br [Example 330] |  |  |  | ≥ 80 | 2.76 | ≥ 80 | ≥ 80 |  | 
CCC(C)NC(=O)c1cc(C#N)cc(C)c1NC(=O)c1cc(Cn2nnc(C(F)(F)F)n2)nn1-c1ncccc1Cl (centres unmarked) [Example 97] | 3.32 | ≥ 80 |  | ≥ 80 |  |  |  | ≥ 80 | 
N#CCNC(=O)c1cc(Cl)cc(Cl)c1NC(=O)c1cc(Cn2nnc(C(F)(F)F)n2)nn1-c1ncccc1Cl [Example 59] | 2.92 | ≥ 80 | ≥ 80 | ≥ 80 |  |  |  |  | 
Cc1cc(C#N)cc(C(N)=O)c1NC(=O)c1cc(Cn2nnc(C(F)(F)F)n2)nn1-c1ncccc1Cl [Example 17] | 2.45 | ≥ 80 | ≥ 80 | ≥ 80 |  |  |  |  | 
CNC(=O)c1cc(Cl)cc(C)c1NC(=O)c1cc(Cn2nnc(C(F)(F)F)n2)nn1-c1cc(Cl)ccc1Cl [Example 313] |  |  |  | ≥ 80 | 3.93 | ≥ 80 | ≥ 80 |  | 
CSC[C@H](C)NC(=O)c1cc(Cl)cc(C)c1NC(=O)c1cc(Cn2nnc(C(F)(F)F)n2)nn1-c1ncccc1Cl [Example 41] | 3.68 | ≥ 80 | ≥ 80 | ≥ 80 |  |  |  |  | 
Cc1cc(I)cc(C(N)=O)c1NC(=O)c1cc(Cn2nnc(C(F)F)n2)nn1-c1ncccc1Cl [Example 272] | 2.53 | ≥ 80 | ≥ 80 | ≥ 80 |  |  |  |  | 
CCNC(=O)c1cc(C#N)cc(C)c1NC(=O)c1cc(Cn2nnc(C(F)F)n2)nn1-c1ncccc1Cl [Example 265] | 2.36 | ≥ 80 | ≥ 80 | ≥ 80 |  |  |  |  | 
COCC(C)NC(=O)c1cc(C#N)cc(C)c1NC(=O)c1cc(Cn2nnc(C(F)(F)F)n2)nn1-c1ncccc1Cl (centres unmarked) [Example 98] | 2.95 | ≥ 80 | ≥ 80 | ≥ 80 |  |  |  |  | 
NC(=O)c1cc(Cl)cc(Cl)c1NC(=O)c1cc(Cn2nnc(C(F)(C(F)(F)F)C(F)(F)F)n2)nn1-c1ncccc1Cl [Example 391] | 3.41 | ≥ 80 | ≥ 80 | ≥ 80 |  |  |  |  | 
CCNC(=O)c1cc(Cl)cc(C)c1NC(=O)c1cc(Cn2nnc(C(F)(F)F)n2)nn1-c1ncccc1Br [Example 346] |  |  |  | ≥ 80 | 3.23 | ≥ 80 | ≥ 80 |  | 
CNC(=O)c1cc(C#N)cc(C)c1NC(=O)c1cc(Cn2nnc(C(F)(F)F)n2)nn1-c1cc(Cl)ccc1Cl [Example 317] |  |  |  | ≥ 80 | 3.48 | ≥ 80 | ≥ 80 |  | 
CC(C)(C)NC(=O)c1cc(Cl)cc(Cl)c1NC(=O)c1cc(Cn2nnnc2C(F)F)nn1-c1ncccc1Cl [Example 471] | 3.05 | ≥ 80 | ≥ 80 | ≥ 80 |  |  |  |  | 
Cc1cc(Cl)cc(C(=O)NC(C)(C)C)c1NC(=O)c1cc(Cn2nnnc2C(F)(F)F)nn1-c1ncccc1Br [Example 484] |  |  |  | ≥ 80 |  | ≥ 80 | ≥ 80 |  | 3.52
Cc1cc(C#N)cc(C(=O)NC(C)C2CC2)c1NC(=O)c1cc(Cn2nnnc2C(F)(F)C(F)(F)F)nn1-c1ncccc1Cl (centres unmarked) [Example 203] | 3.48 | ≥ 80 | ≥ 80 | ≥ 80 |  |  |  |  | 

SMILES | chromatographic logP ([1]; log P) | pest or weed control at 100 g/ha ([2]; in Zea mays) [%] | pest or weed control at 100 g/ha ([3]; in Brassica rapa) [%] | pest or weed control at 100 g/ha [4] [%] | chromatographic logP [1, 5] | pest or weed control at 100 g/ha [2, 6] [%] | pest or weed control at 100 g/ha [3, 7] [%] | pest or weed control at 20 g/ha ([3]; in Brassica rapa) [%] | chromatographic logP [1, 8]
Cc1cc(Cl)cc(C(=O)NCC2CC2)c1NC(=O)c1cc(Cn2nnc(C(F)F)n2)nn1-c1ncccc1Cl [Example 259] | 3.04 | ≥ 80 | ≥ 80 | ≥ 80 |  |  |  |  | 
Cc1cc(C#N)cc(C(=O)NC(C)C)c1NC(=O)c1cc(Cn2nnnc2C(F)(F)F)nn1-c1ncccc1Cl [Example 165] | 2.72 | ≥ 80 | ≥ 80 | ≥ 80 |  |  |  |  | 
Cc1cc(C#N)cc(C(=O)NC(C)(C)C)c1NC(=O)c1cc(Cn2nnc(C(F)(F)F)n2)nn1-c1ncccc1Cl [Example 15] | 3.4 | ≥ 80 | ≥ 80 | ≥ 80 |  |  |  |  | 
CNC(=O)c1cc(Cl)cc(C)c1NC(=O)c1cc(Cn2nnnc2C(F)(F)F)nn1-c1ncccc1Br [Example 480] |  |  |  | ≥ 80 |  | ≥ 80 | ≥ 80 |  | 2.79
C=C(C)CNC(=O)c1cc(Cl)cc(C)c1NC(=O)c1cc(Cn2nnc(C(F)(F)F)n2)nn1-c1ncccc1Cl [Example 337] | 3.62 | ≥ 80 | ≥ 80 | ≥ 80 |  |  |  |  | 
CNC(=O)c1cc(Cl)cc(Cl)c1NC(=O)c1cc(Cn2nnnc2C(F)(F)C(F)(F)F)nn1-c1ncccc1Cl [Example 447] | 3.03 | ≥ 80 | ≥ 80 | ≥ 80 |  |  |  |  | 
CSC[C@H](C)NC(=O)c1cc(C)cc(C)c1NC(=O)c1cc(Cn2nnc(C(F)(F)F)n2)nn1-c1ncccc1Cl [Example 86] | 3.5 | ≥ 80 | ≥ 80 | ≥ 80 |  |  |  |  | 
Cc1cc(Br)cc(C(=O)NCC#N)c1NC(=O)c1cc(Cn2nnc(C(F)(F)F)n2)nn1-c1ncccc1Cl [Example 52] | 3.02 | ≥ 80 | ≥ 80 | ≥ 80 |  |  |  |  | 
CNC(=O)c1cc(Cl)cc(C)c1NC(=O)c1cc(Cn2nnnc2C(F)F)nn1-c1ncccc1Cl [Example 470] | 2.26 | ≥ 80 | ≥ 80 | ≥ 80 |  |  |  |  | 
Cc1cc(C#N)cc(C(=O)NCC2CC2)c1NC(=O)c1cc(Cn2nnnc2C(F)(F)F)nn1-c1ccccc1Cl [Example 526] |  |  |  | ≥ 80 |  | ≥ 80 | ≥ 80 |  | 3.25
CC(C)NC(=O)c1cc(Cl)cc(Cl)c1NC(=O)c1cc(Cn2nnc(C(F)(F)C(F)(F)F)n2)nn1-c1ncccc1Cl [Example 153] | 3.81 | ≥ 80 | ≥ 80 | ≥ 80 |  |  |  |  | 
Cc1cc(Br)cc(C(=O)NC(C)(C)C)c1NC(=O)c1cc(Cn2nnc(C(F)F)n2)nn1-c1ncccc1Cl [Example 309] | 3.36 | ≥ 80 | ≥ 80 | ≥ 80 |  |  |  |  | 
Cc1cc(Cl)cc(C(=O)NC(C)C)c1NC(=O)c1cc(Cn2nnc(C(F)(F)F)n2)nn1-c1ccccc1Cl [Example 427] |  |  |  | ≥ 80 |  | ≥ 80 | ≥ 80 |  | 3.93
CNC(=O)c1cc(C)cc(C)c1NC(=O)c1cc(Cn2nnc(C(F)(F)F)n2)nn1-c1ncccc1Cl [Example 78] | 2.81 | ≥ 80 | ≥ 80 | ≥ 80 |  |  |  |  | 
Cc1cc(C#N)cc(C(=O)NOCC2CC2)c1NC(=O)c1cc(Cn2nnc(C(F)(F)F)n2)nn1-c1ncccc1Cl [Example 397] | 2.96 | ≥ 80 | ≥ 80 | ≥ 80 |  |  |  |  | 
Cc1cc(Cl)cc(C(=O)NC(C)(C)C)c1NC(=O)c1cc(Cn2nnc(C(F)(F)F)n2)nn1-c1ncccc1C(F)(F)F [Example 224] |  |  |  | ≥ 80 | 4 | ≥ 80 | ≥ 80 |  | 
CNC(=O)c1cc(Cl)cc(C)c1NC(=O)c1cc(Cn2nnc(C3CC3)n2)nn1-c1ncccc1Cl [Example 104] | 2.52 | ≥ 80 | ≥ 80 | ≥ 80 |  |  |  |  | 
